Reference: patent publication US10245249B2, “Pharmaceutical compositions comprising nitroxyl donors” (Cardioxyl Pharmaceuticals, Inc., priority 2013, dated 2019)

Legend:
[1] = In vitro stability (half-life) in phosphate buffered saline (PBS) pH 7.4; assay type: physicochemical; conditions: pH 7.4, 5 μM, PBS pH 7.4, 37° C., read-out: T1/2 (minutes) PBS
Procedure: (§1) Certain compounds from Tables 1 and 2 and CXL-1020 were tested for their stability in phosphate buffered saline (PBS) and plasma. The assay system comprised (i) PBS, or plasma from rat, dog or human (at least 3 donors, male, pooled) at pH 7.4, and (ii) for tests conducted in plasma, an anticoagulant (sodium heparin or sodium citrate). Each test compound (5 μM) was incubated in PBS or plasma at 37° C. on a THERMOMIXER® with shaking. Three samples (n=3) were taken at each of seven sampling time points: 0, 10, 30, 60, 90, 180 and 360 minutes. The samples were immediately combined with 3 volumes (i.e., 3 times the volume of PBS or plasma) of acetonitrile containing 1% formic acid and an internal standard to terminate the reaction. AB SCIEX API 3000 LC-MS/MS analysis of the test compounds was performed without a standard curve. Half-lives (T1/2) of the test compounds were determined from graphs of the percent remaining values using the peak area response ratio. For compounds tested multiple times, the value provided in the Table represents an average of the replicate assays.

[2] = In vitro stability (half-life) in human plasma; assay type: in vitro ADME; conditions: male, human plasma pH 7.4 with anticoagulant, 37° C., read-out: T1/2 (minutes) Human
Procedure: as §1

[3] = In vitro stability (half-life) in dog plasma; assay type: in vitro ADME; conditions: male, dog, plasma, pH 7.4, 5 μM, dog plasma pH 7.4 with anticoagulant, 37° C.; read-out: T1/2 (minutes) Dog
Procedure: as §1

beagle dogs = assay: Canine peripheral vein toxicity model, 24 hour infusion (clinical pathology markers of inflammation: WBC, fibrinogen, CRP); assay type: in vivo
Procedure: Key inflammatory markers measured include white blood cells (WBC), fibrinogen, and C-reactive protein (CRP).
After 24 hours of infusion, clinical pathology changes similar to those observed in previous studies using an implanted central catheter were detected.
Studies were conducted in male and female beagle dogs. Animals were allowed free access to drinking water and a commercial canine diet under standard laboratory conditions. Animals were fasted prior to blood sample collections when indicated by the study protocol. Fluorescent lighting was provided via an automatic timer for approximately 12 hours per day. On occasion, the dark cycle was interrupted intermittently due to study-related activities. Temperature and humidity were monitored and recorded daily and maintained to the maximum extent possible between 64° F. to 84° F. and 30% to 70%, respectively. The dogs were acclimated for a period of at least 1 week. During this period, the animals were weighed weekly and observed with respect to general health and any signs of disease. The animals were acclimated to wearing a jacket for at least three days prior to dose administration. Additionally, the animals were also acclimated to wearing an Elizabethan collar (e-collar) during the jacket acclimation.
Animals were catheterized the day prior to dose administration. A percutaneous catheter was placed (using aseptic technique and sterile bandaging) in the cephalic vein distal to the elbow. The animals were free-moving in their cages during continuous infusion dose administration. To facilitate continuous infusion dose administration, the peripheral catheter was attached to an extension set routed underneath a canine jacket and then attached to a tether infusion system. To prevent the animals from accessing/removing the peripherally placed percutaneous catheter, the catheterization site was bandaged using Vet Wrap and an e-collar was placed on the animals for the duration of the treatment (i.e., the catheterized period). During the pretreatment period, the venous catheter was infused continuously at a rate of approximately 2-4 mL/hr with 0.9% sodium chloride for injection, USP (saline) to maintain catheter patency. Prior to dosing, the infusion system was pre-filled (slow bolus infusion) with the respective dosing solution to ensure that dosing began as soon as the infusion pump was started. The infusion line was connected to a reservoir containing the control or test compound and the infusion was started. Test compositions were infused continuously, at a predetermined constant infusion rate (1 or 2 mL/kg/hr), for 24 hours and were compared at molar equivalent dose rates.
A detailed clinical examination of each animal was performed twice daily and body temperature measurements and blood samples for clinical pathology were collected from all animals pre-dose and 6 hours, 12 hours, 24 hours and 72 hours post start of composition infusion. At the termination of the study, all animals were euthanized at their scheduled necropsy and complete necropsy examinations were performed. Selected tissues were collected, fixed and stored for potential future microscopic examination. The cephalic vein containing the infusion catheter was dissected intact along with the brachial vein and examined along its entire length. The location of the catheter tip was marked on the unfixed specimen. After fixation, the specimen was trimmed and processed to slide to provide transverse histologic sections representing the catheter tip and surrounding tissues both proximal and distal to the catheter tip (i.e., 1 cm distal to the catheter tip, at the catheter tip, and 1, 5, 10, 15, and 20 cm proximal to the catheter tip). Relative to the catheter tip, “proximal” was defined as closer to the heart and “distal” was defined as further from the heart.
Each compound was formulated with CAPTISOL® (7% w/v) in sterile water at a pH of 4. […]

dogs [4] = assay: Toxicological profile of compositions formulated at pH 4 or pH 6, 24 hour infusion at 3 μg/kg/min; assay type: in vivo; conditions: 1:1 molar donor:CAPTISOL, infused at 3 μg/kg/min, FIG. 4
Procedure: For samples at a pH of 4, the compositions were prepared by admixing a 1:1 molar ratio of the nitroxyl donor:CAPTISOL®, lyophilizing the admixture, then diluting the lyophilized admixture into D5W. For samples at a pH of 6, the compositions were prepared by admixing a 1:1 molar ratio of the nitroxyl donor:CAPTISOL®, lyophilizing the admixture, then diluting the lyophilized admixture into D5W with 5 mM potassium phosphate. Compounds were infused at a rate of 3 μg/kg/min.

dogs [5] = assay: Canine implanted central catheter 72 hour continuous infusion model (clinical and microscopic pathology of vasculature); assay type: in vivo
Procedure: To determine the cause of the inflammation and hind limb swelling, a series of 72-hour continuous infusion investigative studies were conducted over the following 6 months. […] The first site of inflammation, the catheter insertion site, caused the dog hind limb swelling and inflammation observed in the early-terminated follow-up study. Increasing infusate pH from 4 to 6 decreased inflammation, improving the inflammatory profile by approximately 3-fold (see FIG. 4).
Confirmation of this was obtained through evaluating the nitroxyl donors through detailed histopathology of the vasculature at the site of insertion of into the femoral vein (15 cm distal to the catheter tip), along the catheter track to the catheter tip, and past the tip downstream 20 cm.
A composite score was calculated from the sum of these findings scores. In FIG. 3, the cumulative histology composite score ranges from 0-2 (low severity) to 11-12 (high severity). […] The NOAEL values determined based on these microscopic pathology markers for a series of nitroxyl donors, expressed in molar equivalent dose rates (μg/kg/min) to CXL-1020, are provided in Table 8.

[6] = Exploratory studies on the cause of CXL-1020 side effects (byproduct, alternative short half-life donors); assay type: in vivo; conditions: studies conducted with the byproduct
Procedure: Exploratory studies were continued to determine the cause of the undesirable side effects of CXL-1020 at the higher, but still clinically desirable, doses. […] Studies were conducted with alternative Nitroxyl donors that were structurally unrelated to CXL-1020 but had similar half-lives for nitroxyl donation (half-lives of about 2 minutes). In all instances, local vascular side effects at the catheter tip were observed.

O=S(=O)(NO)c1ccc(Cl)s1 [Compound 86, 5-Chloro-N-hydroxythiophene-2-sulfonamide]
half-life at 5 μM [1]: 38 min | half-life at 5 μM [2]: 18 min | half-life at 5 μM [3]: 12 min | NOAEL (μg/kg/min) (actual) (beagle dogs; based on clinical pathology markers (WBC, fibrinogen, CRP), 24 hour infusion, CAPTISOL 7% w/v, pH 4): 3 µg/kg/min | NOAEL compared with CXL-1020 (beagle dogs; clinical pathology markers): significantly higher than that of CXL-1020 | effect of increasing infusate pH from approximately 4 to approximately 6 on toxicology (dogs [4]): improved the toxicology | NOAEL (μg/kg/min) (molar equivalent to CXL-1020) (dogs [5]; based on microscopic pathology markers (edema, hemorrhage, vascular and perivascular inflammation)): ≥180 µg/kg/min | toxicological profile relative to CXL-1020 (dogs [5]; microscopic pathology, Table 8): substantially improved toxicological profile relative to CXL-1020

CS(=O)(=O)c1ccccc1S(=O)O [byproduct of CXL-1020]
side effects [6]: negative
